Measurements taken from publication PMC7504215, “Copper(II) Complexes with Mixed Heterocycle Ligands as Promising Antibacterial and Antitumor Species” (Molecules, 2020).

Legend:
P. aeruginosa 27853 = assay: MIC assay, liquid medium microdilution (planktonic growth); type: cell-based, Pseudomonas aeruginosa; details: P. aeruginosa 27853, 24 h at 37 °C
Description: (§1) The antibacterial assays were performed on Gram-negative (Escherichia coli ATCC 25922, E. coli 5, Pseudomonas aeruginosa ATCC 27853, P. aeruginosa ATCC 9027) and Gram-positive (Staphylococcus aureus ATCC 25923, S. aureus ATCC 6538, MRSA (Meticillin-resistant S. aureus) 388, ATCC, American Type Culture Collection) bacterial strains. Microbial suspensions (1.5 × 10^8 CFU/mL; colony forming units (CFU)) corresponding to 0.5 McFarland density obtained from 15 to 18-h bacterial cultures developed on solid media were used. The antimicrobial activity was tested on Mueller–Hinton agar medium.
(§2) The quantitative assay of the antimicrobial activity was performed by the liquid medium microdilution method, in 96-well multi-well plates, to establish the minimal inhibitory concentration (MIC). For this purpose, serial two-fold dilutions of the compounds ranging between 1.000 and 1.95 μg/mL were performed in a 200 μL volume of broth and each well was seeded with 50 μL microbial inoculums. Sterility control (wells containing only culture medium) and culture controls (wells containing culture medium seeded with the microbial inoculum) were used. The influence of the DMSO solvent was also quantified in a series of wells containing DMSO, diluted accordingly with the dilution scheme used for the complexes. The plates were incubated for 24 h at 37 °C, and MIC values were considered as the lowest concentration of the tested compound that inhibited the visible growth of the microbial overnight cultures.

P. aeruginosa 9027 = assay: as above; type: cell-based, Pseudomonas aeruginosa; details: P. aeruginosa 9027 (multi-drug-resistant), 24 h at 37 °C
Description: as §1, §2

S. aureus 25923 = assay: MBEC assay, micro-titer method (biofilm); type: cell-based, Staphylococcus aureus
Description: as §1
The assessment of the complexes’ influence on the microbial ability to colonize an inert substratum with the establishment of the minimal biofilm eradication concentration (MBEC) was performed by the micro-titer method, following previously described protocols. The absorbance at 490 nm was measured with an Apollo LB 911ELISA (Berthold Technologies GmbH & Co. KG, Waltham, MA, USA) reader. All experiments were performed in triplicates.

λ-DNA/EB adduct = assay: Quenching of fluorescence of λ-DNA/ethidium bromide adduct; type: binding, bacteriophage lambda; details: λ-DNA pre-treated with EB, increments of complex, pH 8
Description: To determine whether compounds have the capacity to interact with DNA, 48,500 base-pairs of genomic DNA from bacteriophage lambda (λ-DNA, Promega. Madison USA) was used. A stock solution of 10 µM λ-DNA (base-pair concentration) was prepared in 10 mM Tris/HCl buffer containing 1 mM NaCl, pH 8.
The binding of compounds to λ-DNA was assayed by monitoring the quenching of fluorescence emitted by λ-DNA/ethidium bromide (EB) adduct (λexcit = 510, maximum emission at λem = 601). The λ-DNA solution was added to the EB solution, prepared in the same buffer, then increasing concentrations of compounds were added to EB-DNA [2, 48]. The fluorescence spectra were recorded in the range of 550–750 nm using a Thermo Fischer Scientific Varioskan Flash spectral scanning multimode reader (Vantaa, Finland). The spectra were recorded in suitable plates using 5 nm excitation and emission slits for all measurements.

| Compound | MIC (P. aeruginosa 27853) | MIC (P. aeruginosa 9027) | MBEC value (S. aureus 25923) | Fluorescence of λ-DNA/EB adduct on adding complex (λ-DNA/EB adduct) |
| --- | --- | --- | --- | --- |
| Cc1cc(-c2ccccc2)nc2ncnn12.[Cu+2].[O-][Cl+3]([O-])([O-])[O-].[O-][Cl+3]([O-])([O-])[O-].c1cnc2c(c1)ccc1cccnc12.c1cnc2c(c1)ccc1cccnc12 [(2), [Cu(phen)2(pmtp)](ClO4)2] | 90 µM | 90 µM | 0.01 mM | the fluorescence intensity decreased |
| Cc1cc(-c2ccccc2)nc2ncnn12.[Cu+2].[O-][Cl+3]([O-])([O-])[O-].[O-][Cl+3]([O-])([O-])[O-].c1ccc(-c2ccccn2)nc1.c1ccc(-c2ccccn2)nc1 [(1), [Cu(bpy)2(pmtp)](ClO4)2] | 400 µM | 400 µM |  | the fluorescence intensity decreased |
